Here are results for one molecule from patent US20160354427A1, “METHODS FOR INDUCING EPITHELIAL CANCER CELL SENESCENCE” (Institute for Cancer Research d/b/a The Research Institute …, priority 2011, published 2016).

For assay [1], the system named is Wnt5a protein in PEO1 cells. In words: Wnt5a protein expression by immunoblotting after Aza-C treatment. The class given is cell-based, human. The note with it: 5 μmol/L Aza-C for 4 days, vs control. The text has this: (§1) FIGS. 2A-2C show promoter DNA CpG island hypermethylation contributes to Wnt5a downregulation in human EOC cells. […] Locations of exon 1 (open rectangle), CpG sites (vertical lines) and coding exons (filled rectangle), and the transcription start site (curved arrow) are indicated. Flat arrows indicate the positions of primers used for PCR amplification, and the size of PCR product is also indicated. […] Mean of 3 independent experiments with SD.
(§2) RT-PCR, qRT-PCR and immunoblotting. RNA from cultured primary HOSE or human EOC cells was isolated using Trizol (Invitrogen) according to manufacture's instruction. For qRT-PCR, Trizol®—(Molecular Research Center, Inc., Cincinnati, Ohio) isolated RNA was further purified using a RNeasy® mini kit (Qiagen GmbH, Germany). The Wnt5a primers used for qRT-PCR were purchased from Applied Biosystems. Housekeeping β-2-microglobulin or β-actin mRNA expression was used to normalize the Wnt5a mRNA expression. Soluble β-catenin was extracted using a buffer that consisting of 10 mM pH 7.5 Tris-HCl, 0.05% NP-40, 10 mM NaCl, 3 mM MgCl2, 1 mM EDTA and proteinase inhibitors (Roche). The following antibodies were used for immunoblotting: goat anti-Wnt5a (R&D systems), mouse anti-GAPDH (Millipore/Chemicon), mouse anti-β-catenin (BD Bioscience), anti-p53, mouse anti-Rb and mouse anti-β-actin (Sigma Chemical Co.), and rabbit anti-pRBpS780 (Cell Signaling).

The subject of another assay is Wnt5a mRNA in PEO1 cells. Kind of assay: Wnt5a mRNA expression by qRT-PCR after Aza-C treatment. The class given is cell-based, human. The note with it: 5 μmol/L Aza-C for 4 days, vs control.
From the text: as §1, §2
A general note: Real-time PCR tracks product formation cycle by cycle.

As to `Nc1ncn([C@@H]2O[C@H](CO)[C@@H](O)[C@H]2O)c(=O)n1` [Aza-C, 5-Aza-cytadine], the “levels of Wnt5a protein” value in assay [1] was “significant increase”. For the same molecule, the “levels of Wnt5a mRNA” value in the assay with Wnt5a mRNA in PEO1 cells is given as “significant increase”.
